Experiments:
[1] = system: myeloma cell line RPMI 8226; assay: Effects of signal transduction inhibitors on cell injury by 2D7-DB; conditions: 60 minutes of pretreatment, 2D7-DB 1 μg/mL
Method: This time, the present inventors further examined the antitumor mechanism of 2D7-DB. First, 60 minutes of pretreatment was performed using various signal transduction inhibitors, and their effects on cell injury of the myeloma cell line RPMI 8226 after 2D7-DB (1 μg/mL) addition were examined (FIG. 6A).

myeloma cell line ARH-77 = assay: Actin staining, localization of 2D7-DB and actin; type: cell-based, human; conditions: ARH-77, 30 minutes of pretreatment with inhibitor 0,1 μM
Method: Furthermore, actin staining of the cells was performed to examine the localization of 2D7-DB (green) and actin (red) (FIG. 6B). […] On the other hand, actin aggregation due to 2D7-DB was not observed in the bone marrow stromal cell line KM102 expressing HLA-A. Thus, actin aggregation effect and cytotoxic activity by 2D7-DB were considered specific to myeloma cells and lymphoid cells, and while 2D7-DB is useful for myeloma and autoimmune diseases, it was considered to have little effect on normal tissues.

[2] = system: HLA-A expression in IM-9 cells; assay: Effects of IFNs on HLA-A expression (flow cytometry using 2D7); type: cell-based, human; conditions: IFN 100 U/mL for 48 hours
Method: IM-9 cells were treated with IFN-α (100 U/mL) or IFN-γ (100 U/mL) for 48 hours. Cell surface expression of HLA-A was analyzed by flow cytometry using 2D7. The staining properties of IFN-treated cells are shown by tick lines, and those of untreated cells are shown by solid lines. Negative control staining properties are shown by dotted lines. (B) A graph indicating the enhancement of 2D7-DB-mediated cytotoxicity by IFN is shown. IM-9 cells were treated with IFN-α (100 U/mL) or IFN-γ (100 U/mL) for 48 hours, and then cultured with 2D7-DB (0.1 or 1 μg/mL) for 24 hours. Cell viabilities were determined by WST-8 assays.
Since cell surface expression of HLA class I is enhanced by IFN stimulation, effects of IFNs on HLA-A expression and 2D7-DB-mediated cytotoxicity were examined using IM-9 cells. After treating IM-9 cells with IFN-α (100 U/mL, OIF 2,500,000 IU, Otsuka Pharmaceutical) or IFN-γ (100 U/mL, Ogamma 100, Otsuka Pharmaceutical) for 48 hours, flow cytometry was performed. […]
Cell surface expression analysis of HLA class I by flow cytometry was performed as follows using FITC-labeled 2D7 mAb or FITC-labeled anti-HLA-ABC common region mAb (Chemicon, San Diego, Calif.). […] Next, the cells were washed twice with PBS, and analyzed using an EPICS XL flow cytometer (Beckman Coulter, Japan). […] HLA class I expression levels were evaluated as GeoMFI using the CellQuest software (BID Biosciences).

Molecule: COC[C@H]1OC(=O)c2coc3c2[C@@]1(C)C1=C(C3=O)[C@@H]2CCC(=O)[C@@]2(C)C[C@H]1OC(C)=O [Wortmannin]
- effect on cytotoxicity of 2D7-DB ([1]; inhibitor 10 μM): did not show effects

Molecule: C=C1[C@@H](C)[C@H]2[C@H](Cc3ccccc3)NC(=O)[C@]23[C@H](OC(C)=O)/C=C/[C@@](C)(O)C(=O)[C@@H](C)C/C=C/[C@H]3[C@@H]1O [cytochalasin D]
- effect on cytotoxicity of 2D7-DB ([1]; inhibitor 1 μM): almost completely suppressed

Molecule: C/C1=C/C(=O)O[C@@H]2C[C@@H](CC[C@H](C)/C=C\C=C\CC1)O[C@@](O)([C@@H]1CSC(=O)N1)C2 [latrunculin A]
- effect on cytotoxicity of 2D7-DB ([1]; inhibitor 0.1 μM): almost completely suppressed
- actin aggregation after 2D7-DB addition (myeloma cell line ARH-77): aggregation was not observed

B1: IFN-γ: interferon γ, Ogamma 100, Otsuka Pharmaceutical; amino acid sequence SEQ ID NO: 3 (protein, listed as Homo sapiens)
chain: MKYTSYILAFQLCIVLGSLGCYCQDPYVKEAENLKKYFNAGHSDVADNGTLFLGILKNWKEESDRKIMQSQIVSFYFKLFKNFKDDQSIQKSVETIKEDMNVKFFNSNKKKRDDFEKLTNYSVTDLNVQRKAIHELIQVMAELSPAAKTGKRKRSQMLFRGRRASQ
- HLA-A expression [2]: up-regulated

B2: IFN-α: interferon α, OIF 2,500,000 IU, Otsuka Pharmaceutical; amino acid sequence SEQ ID NO: 1 (protein, listed as Homo sapiens)
chain: MASPFALLMVLVVLSCKSSCSLGCDLPETHSLDNRRTLMLLAQMSRISPSSCLMDRHDFGFPQEEFDGNQFQKAPAISVLHELIQQIFNLFTTKDSSAAWDEDLLDKFCTELYQQLNDLEACVMQEERVGETPLMNADSILAVKKYFRRITLYLTEKKYSPCAWEVVRAEIMRSLSLSTNLQERLRRKE
- HLA-A expression [2]: up-regulated

— patent US20090022687A1, “Novel Pharmaceuticals That Use Anti-HLA Antibodies” (Chugai Seiyaku Kabushiki Kaisha, priority 2005, published 2009)
